Columns and labels:
pRb phosphorylations = assay: pRb phosphorylation in HCC1806 cells; format: cell-based, Human; conditions: not shown
Method: Equal amounts of whole cell extract proteins were separated according to molecular mass and immunodetected. CDK4-containing complexes were co-immunoprecipited as described (Paternot et al., 2003, J Biol Chem, 278, 26533-40; Bockstaele et al., 2006, Mol Cell Biol, 26, 5070-85). For 2D gel electrophoresis, cells were lysed in a buffer containing 7 M urea and 2 M thiourea. Frozen tumor slides were solubilised in 30 mM Tris cold buffer pH 8.5 containing 7 M urea, 2 M thiourea and 4% CHAPS with continuous vortexing until defreezing and kept under agitation during 20 min. After centrifugation at 14000 rpm for 10 min at 4° C., proteins were quantified. An equal volume of 2-D-sample buffer (7 M urea, 2 M thiourea, 2% CHAPS, 0.4% 3-10 Pharmalytes and 0.4% DTT) was added to samples normalized at 150 μg proteins. Proteins were separated by isoelectric focusing on immobilized linear pH gradient strips (pH 5 to 8, Biorad) before being separated by SDS-PAGE and immunoblotted as described (Bockstaele et al., 2006, Mol Cell Biol, 26, 5070-85).

BT20 = assay: BrdU DNA incorporation assay
Method: (§1) One hour before fixation with methanol, 100 μM 5-Bromo-2′-deoxyuridine (BrdU, Sigma-Aldrich) and 4 μM 5-Fluoro-2′-deoxyuridine (FldU, Sigma-Aldrich) were added to the cells. Immuno-detection of DNA incorporated BrdU was performed. 4′,6-Diamidino-2-phenylindole, dilactate (DAPI, Thermo Fisher Scientific) solution (1 μg/ml) was used as nuclear counterstain and round coverslips were mounted in each well of the 96 well plate with ProLong Gold Antifade Mountant (Thermo Fisher Scientific). […] Culture plates were imaged with a Zeiss Axio Observer.Z1 wide-field microscope equipped with a 10/0.3×EC Plan Neofluar objective and an AxioCam HSm camera. For each well, a grid of 3×3 fields (each of them 660 μm×492 μm) was automatically defined using the Mark&Find option of the AxioVision software. […] Exposure times were chosen so as to maximize the signal while avoiding saturation. They were kept constant through all images within one experiment. A software-based autofocus was performed on the DAPI channel, using a general offset of 8-10 μm. A 10 μm offset was added for the A488 channel. Images were analyzed semi-automatically with a custom-made ImageJ macro. […] The total number of nuclei and the area that they represent were recorded to compute the BrdU-positive to total nuclei ratios. […] Images with less than 10 labeled nuclei were counted manually with the Image J cell counter plugin.

BT474 = assay: BrdU DNA incorporation assay
Method: as §1

BT549 = assay: BrdU DNA incorporation assay
Method: as §1

HCC1500 = assay: BrdU DNA incorporation assay
Method: as §1

HCC1569 = assay: BrdU DNA incorporation assay
Method: as §1

HCC1806 = assay: BrdU DNA incorporation assay
Method: One hour before fixation with methanol, 100 μM 5-Bromo-2′-deoxyuridine (BrdU, Sigma-Aldrich) and 4 μM 5-Fluoro-2′-deoxyuridine (FldU, Sigma-Aldrich) were added to the cells. Immuno-detection of DNA incorporated BrdU was performed. 4′,6-Diamidino-2-phenylindole, dilactate (DAPI, Thermo Fisher Scientific) solution (1 μg/ml) was used as nuclear counterstain and round coverslips were mounted in each well of the 96 well plate with ProLong Gold Antifade Mountant (Thermo Fisher Scientific). […] Culture plates were imaged with a Zeiss Axio Observer.Z1 wide-field microscope equipped with a 10/0.3×EC Plan Neofluar objective and an AxioCam HSm camera. For each well, a grid of 3×3 fields (each of them 660 μm×492 μm) was automatically defined using the Mark&Find option of the AxioVision software. […] Exposure times were chosen so as to maximize the signal while avoiding saturation. They were kept constant through all images within one experiment. A software-based autofocus was performed on the DAPI channel, using a general offset of 8-10 μm. A 10 μm offset was added for the A488 channel. Images were analyzed semi-automatically with a custom-made ImageJ macro. For each field of view, two masks were created, representing the areas positive for the DAPI or for both the DAPI and the BrdU stainings, respectively. Nuclei were then segmented within these masks using the “Analyze particles” function. The total number of nuclei and the area that they represent were recorded to compute the BrdU-positive to total nuclei ratios. The segmentation of the nuclei was verified visually and only values extracted from correctly segmented images were selected for further analysis. […] Each processed image was therefore systematically inspected to correct low counts and remove image with staining artefacts from the analysis. Images with less than 10 labeled nuclei were counted manually with the Image J cell counter plugin.

HCC1937 = assay: BrdU DNA incorporation assay
Method: as §1

HCC1954 = assay: BrdU DNA incorporation assay
Method: as §1

HCC202 = assay: BrdU DNA incorporation assay; conditions: Homo sapiens, HCC202, 24 h
Method: as §1

HCC38 = assay: BrdU DNA incorporation assay
Method: as §1

HCC70 = assay: BrdU DNA incorporation assay
Method: as §1

MCF7 = assay: BrdU DNA incorporation assay
Method: as §1

MDAMB134VI = assay: BrdU DNA incorporation assay
Method: as §1

MDAMB231 = assay: BrdU DNA incorporation assay
Method: as §1

MDAMB361 = assay: BrdU DNA incorporation assay
Method: as §1

MDAMB436 = assay: BrdU DNA incorporation assay
Method: as §1

MDAMB468 = assay: BrdU DNA incorporation assay
Method: as §1

SKBR3 = assay: BrdU DNA incorporation assay
Method: as §1

T47D = assay: BrdU DNA incorporation assay
Method: as §1

ZR751 = assay: BrdU DNA incorporation assay
Method: as §1

breast cancer cell lines = assay: BrdU incorporation assay, panel of 20 cell lines
Method: as §1

`CC(=O)c1c(C)c2cnc(Nc3ccc(N4CCNCC4)cn3)nc2n(C2CCCC2)c1=O` [PD0332991, palbociclib] was tested, and the “inhibition of pRb phosphorylations in response to PD0332991” value (pRb phosphorylations) was “marked inhibition”, the “sensitivity of the cell line to PD0332991” value (BT20; BT20, basal-like) was “sensitive” and the IC50 (BT20; Homo sapiens, BT-20, 24 h) was 3 nM. For the same compound, the “sensitivity of the cell line to PD0332991” value (BT474; BT474, HER2+) was “sensitive”, the IC50 (BT474; Homo sapiens, BT-474, 24 h) was 15 nM and the “sensitivity of the cell line to PD0332991” value (BT549; BT459 as printed, basal-like) was “insensitive”. For the same compound, the IC50 (BT549; Homo sapiens, BT-549, 24 h) was > 1000 nM, the “sensitivity of the cell line to PD0332991” value (HCC1500; HCC1500, basal-like) was “sensitive” and the IC50 (HCC1500; Homo sapiens, HCC1500, 24 h) was 10 nM. For the same compound, the “sensitivity of the cell line to palbociclib” value (HCC1569; HCC1569) was “insensitive”, the IC50 (HCC1569; Homo sapiens, HCC1569, 24 h) was > 1000 nM and the “proportion of cells in S phase measured with the BrDU assay” value (HCC1806; HCC1806 cells, 1 μM PD0332991 (FIG. 1C), average of 5 independent experiments) was 80 % of the control value. The IC50 (HCC1806; Homo sapiens, HCC1806, 24 h) was 10 nM, the “sensitivity of the cell line to PD0332991” value (HCC1937; HCC1937, basal-like) was “insensitive” and the IC50 (HCC1937; Homo sapiens, HCC1937, 24 h) was > 1000 nM. The “sensitivity of the cell line to PD0332991” value (HCC1954; HCC1954, HER2+) was “sensitive”, the IC50 (HCC1954; Homo sapiens, HCC1954, 24 h) was 25 nM and the IC50 (HCC202) was 25 nM. The “sensitivity of the cell line to PD0332991” value (HCC38; HCC38, basal-like) was “sensitive”, the IC50 (HCC38; Homo sapiens, HCC38, 24 h) was 15 nM and the “sensitivity of the cell line to PD0332991” value (HCC70; HCC70, basal-like) was “insensitive”. For the same compound, the IC50 (HCC70; Homo sapiens, HCC70, 24 h) was > 1000 nM, the IC50 (MCF7; Homo sapiens, MCF7, 24 h) was 15 nM and the “sensitivity of the cell line to PD0332991” value (MCF7; MCF7, luminal) was “sensitive”. For the same compound, the IC50 (MDAMB134VI; Homo sapiens, MDA-MB-134-VI, 24 h) was 3 nM, the “sensitivity of the cell line to PD0332991” value (MDAMB134VI; MDAMB134IV as printed, luminal) was “sensitive” and the IC50 (MDAMB231; Homo sapiens, MDA-MB-231, 24 h) was 15 nM. For the same compound, the “sensitivity of the cell line to PD0332991” value (MDAMB231; MDAMB231, basal-like) was “sensitive”, the IC50 (MDAMB361; Homo sapiens, MDA-MB-361, 24 h) was 10 nM and the “sensitivity of the cell line to PD0332991” value (MDAMB361; MDAMB361, HER2+) was “sensitive”. For the same compound, the IC50 (MDAMB436; Homo sapiens, MDA-MB-436, 24 h) was > 1000 nM, the “sensitivity of the cell line to PD0332991” value (MDAMB436; MDAMB436, basal-like) was “insensitive” and the IC50 (MDAMB468; Homo sapiens, MDA-MB-468, 24 h) was > 1000 nM. For the same compound, the “sensitivity of the cell line to PD0332991” value (MDAMB468; MDAMB468, basal-like) was “insensitive”, the IC50 (SKBR3; Homo sapiens, SK-BR-3, 24 h) was 15 nM and the “sensitivity of the cell line to PD0332991” value (SKBR3; SKBR3, HER2+) was “sensitive”. For the same compound, the IC50 (T47D; Homo sapiens, 24 h) was 15 nM, the “sensitivity of the cell line to PD0332991” value (T47D; luminal) was “sensitive” and the IC50 (ZR751; Homo sapiens, ZR-75-1, 24 h) was 15 nM. The “sensitivity of the cell line to PD0332991” value (ZR751; ZR75-1) was “sensitive”, the “cell lines in which the proportion of DNA replicating cells was reduced in a concentration-dependent way” value (breast cancer cell lines; BrdU incorporation) was 13 out of these 20 cell lines and the IC50 (breast cancer cell lines; Homo sapiens, read-out: IC50s with the BrdU incorporation assay) was 5 to 50 nM.

With `CC[C@H](CO)Nc1nc(NCc2ccccc2)c2ncn(C(C)C)c2n1` [Roscovitine] the “effect of Roscovitine on the sensitivity of HCC1806 cells to PD0332991” value (HCC1806; 2.5, 5, 10 μM Roscovitine with increasing concentrations of PD0332991, BrdU (FIG. 5)) was “dose-dependently increased the sensitivity”.
